In patent US5969098A, “Yeast-toxin-related protein for antimicrobial vaccine and sterilizing preservative use” (CyberChemics, Inc., priority 1997, dated 1999):
Where no end group is shown, it is not given here.

system: human red blood cells; experiment: hemolysis of human red blood cells in whole blood (extracellular hemoglobin, spectrophotometric); format: cell-based; settings: human red blood cells exposed in whole blood, peptide concentration 63 ug/mL
Description: Table III lists the approximate pharmacokinetics of synthetic peptides described in the present invention which solubilize readily, persist in conformationally active secondary structures in vivo, and induce lysis of representative bacteria, yeast and fungi. These determinations derive from optical density readings (O.D.) and rely on spectrophotometric absorbance from known initial concentrations as reference standards. It is worth noting that although the peptide antimicrobials show 30+% homology with the yeast killer toxin beta subunit fragment, they have very favorable safety profiles on mammalian cells. For example, when human red blood cells are exposed in whole blood to SEQ. […] Perhaps, as significant, the safety profile derives from very specific amino acid substitutions, since substitution for less than 20% of the amino acids in SEQ. 1 renders SEQ. 2 hemolytic to 20% at 63 ug/mL and 35% substitution in SEQ. 1 renders SEQ. 3 hemolytic to 100%. Therefore, sequence identity and variation translate directly to the functional balance between microbial inhibition and mammalian safety. The optimal therapeutic index for dosage and effective antimicrobial inhibition of a particular polypeptide or salt thereof follow routinely without elaborate laboratory determinations by those skilled in the art of pharmacokinetics and metabolic pathways using, for instance, various cytochrome and liver enzymes in vivo.

Row | Sequence | hemolysis
1 | LLLLKKLLKLMNLLKKLGHY [SEQ. 3] | 100%
2 | LVLLKKLMKKYKKLKKLGGL [SEQ. 1] | no hemolysis is detectable
3 | LLLLKLLLKKNPKLKKLIGV [SEQ. 2] | 20%
